Reference: patent US20060079503A1, “Thiazolidinones and the use therof as polo-like kinase inhibitors” (SCHERING AKTIENGESELLSCHAFT, priority 2002, published 2006)

Key:
[1] = molecular target: T1, Recombinant human Plk-1 (6×His) (Homo sapiens, UniProt P53350); assay: PLK enzyme assay (33P-γ-ATP incorporation into biotinylated casein, SPA beads); assay type: biochemical; conditions: 10 ng PLK enzyme, 90 minutes at room temperature, 0.5 μmol of ATP, casein substrate; read-out: Inhibition of PLK-1 IC50
T1 construct: 6×His; made in house; host or cells: baculovirus-infected insect cells (Hi5)
Procedure: Recombinant human Plk-1 (6×His) was purified from baculovirus-infected insect cells (Hi5).
10 ng of (produced in a recombinant manner and purified) PLK enzyme is incubated for 90 minutes at room temperature with biotinylated casein and 33P-γ-ATP as a substrate in a volume of 15 μl in 384-well Greiner small-volume microtiter plates (final concentrations in the buffer: 660 ng/ml of PLK; 0.7 μmol of casein, 0.5 μmol of ATP incl. 400 nCi/ml of 33P-γ-ATP; 10 mmol of MgCl2, 1 mmol of MnCl2; 0.01% NP40; 1 mmol of DTT, protease inhibitors; 0.1 mmol of Na2VO3 in 50 mmol of HEPES, pH 7.5). To complete the reaction, 5 μl of stop solution (500 μmol of ATP; 500 mmol of EDTA; 1% Triton X100; 100 mg/ml of streptavidin-coated SPA beads in PBS) is added. After the microtiter plate is sealed by film, the beads are sedimented by centrifuging (10 minutes, 1500 rpm). The incorporation of 33P-γ-ATP in casein is intended as a measurement of enzyme activity by β-counting.
Test substances are used in various concentrations (0 μmol, as well as in the range of 0.01-30 μmol). The final concentration of the solvent dimethyl sulfoxide is 1.5% in all batches.

[2] = test system: human MaTu breast tumor cells; assay: Proliferation assay (crystal violet staining); assay type: cell-based; conditions: 96 h, incubated for 4 days with test substances, read-out: Inhibition of the Tumor Cell Proliferation (MaTu) IC50
Procedure: Cultivated human MaTu breast tumor cells were flattened out at a density of 5000 cells/measuring point in a 96-well multititer plate in […] of the corresponding growth medium. After 24 hours, the cells of one plate (zero-point plate) were colored with crystal violet (see below), while the medium of the other plates was replaced by fresh culture medium […], to which the test substances were added in various concentrations (0 μm, as well as in the range of 0.01-30 μm; the final concentration of the solvent dimethyl sulfoxide was 0.5%). The cells were incubated for 4 days in the presence of test substances. The cell proliferation was determined by coloring the cells with crystal violet: the cells were fixed by adding 20 μl/measuring point of an 11% glutaric aldehyde solution for 15 minutes at room temperature. After three washing cycles of the fixed cells with water, the plates were dried at room temperature. The cells were colored by adding 100 μl/measuring point of a 0.1% crystal violet solution (pH was set at 3 by adding acetic acid). After three washing cycles of the colored cells with water, the plates were dried at room temperature. The dye was dissolved by adding 100 μl/measuring point of a 10% acetic acid solution. The extinction was determined by photometry at a wavelength of 595 nm. The change of cell growth, in percent, was calculated by standardization of the measured values to the extinction values of the zero-point plate (=0%) and the extinction of the untreated (0 μm) cells (=100%).

T1 sequence (P53350 whole entry): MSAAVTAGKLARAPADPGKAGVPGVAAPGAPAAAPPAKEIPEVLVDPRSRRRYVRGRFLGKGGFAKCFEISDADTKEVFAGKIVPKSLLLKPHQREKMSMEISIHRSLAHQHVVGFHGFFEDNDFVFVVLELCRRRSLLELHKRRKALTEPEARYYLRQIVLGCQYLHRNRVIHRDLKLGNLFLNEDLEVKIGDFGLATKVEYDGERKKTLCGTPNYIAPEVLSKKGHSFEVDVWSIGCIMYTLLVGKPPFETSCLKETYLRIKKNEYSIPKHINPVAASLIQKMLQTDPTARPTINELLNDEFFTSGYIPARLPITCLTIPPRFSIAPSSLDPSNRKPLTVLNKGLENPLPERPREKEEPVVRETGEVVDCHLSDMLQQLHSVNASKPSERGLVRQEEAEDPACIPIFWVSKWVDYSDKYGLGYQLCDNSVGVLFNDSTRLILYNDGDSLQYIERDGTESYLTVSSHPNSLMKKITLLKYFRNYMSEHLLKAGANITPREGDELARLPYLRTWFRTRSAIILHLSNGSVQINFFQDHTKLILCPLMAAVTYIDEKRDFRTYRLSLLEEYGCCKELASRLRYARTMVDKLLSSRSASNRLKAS

| SMILES | IC50 [1] [nM] | IC50 [2] [nM] |
| --- | --- | --- |
| CCOC(=O)C(C#N)=c1sc(=CN)c(=O)n1CC (mixture of isomers) [Example 11, (E or Z)-(5-(E/Z)-Aminomethylene-3-ethyl-4-oxo-thiazolidin-2-ylidene)-cyanoacetic acid ethyl ester] | 400 | 15000 |
| CCOC(=O)C(C#N)=c1sc(=CNc2ccc(S(C)(=O)=O)cc2)c(=O)n1CC [Example 22] | 510 |  |
| CCOC(=O)C(C#N)=c1sc(=CNc2ccccc2C(=O)O)c(=O)n1CC [Example 26] | 6300 |  |
| CCOC(=O)C(C#N)=c1sc(=CNc2cc(C(=O)O)ccc2O)c(=O)n1CC [Example 28] | 2300 |  |
| CCOC(=O)C(C#N)=c1sc(=CNc2ccc(Cl)cc2C(=O)O)c(=O)n1CC [Example 31] | 1900 |  |
| CCOC(=O)C(C#N)=c1sc(=CNc2cc(Cl)ccc2C(=O)O)c(=O)n1CC [Example 32] | 1700 |  |
| CCOC(=O)C(C#N)=c1sc(=CNc2ccc(Cl)c(C(=O)O)c2)c(=O)n1CC [Example 33] | 420 |  |
| CCOC(=O)C(C#N)=c1sc(=CNc2ccc(F)cc2C(=O)O)c(=O)n1CC [Example 35] | 2800 |  |
| CCOC(=O)C(C#N)=c1sc(=CNc2ccc(Br)cc2C(=O)O)c(=O)n1CC [Example 36] | 1800 |  |
| CCOC(=O)C(C#N)=c1sc(=CNc2cc(F)c(F)cc2C(=O)O)c(=O)n1CC [Example 37] | 3500 |  |
| CCOC(=O)C(C#N)=c1sc(=CNc2ccc(C)cc2C(=O)O)c(=O)n1CC [Example 38] | 3000 |  |
| CCOC(=O)C(C#N)=c1sc(=CNc2cccc(C)c2C(=O)O)c(=O)n1CC [Example 39] | 5900 |  |
| CCOC(=O)C(C#N)=c1sc(=CNc2ccc(C(=O)O)cc2C)c(=O)n1CC [Example 40] | 1700 |  |
| CCOC(=O)C(C#N)=c1sc(=CNC(=O)Nc2ccccc2)c(=O)n1CC [Example 45] | 680 |  |
| CCOC(=O)C(C#N)=c1sc(=CNc2cccc(S(N)(=O)=O)c2)c(=O)n1CC [Example 53] | 460 |  |
| CCOC(=O)C(C#N)=c1sc(=CNc2cccc(CO)c2)c(=O)n1CC [Example 60] | 290 |  |

The next molecules have a lower IC50 [1] than those just listed; values first:

| IC50 [1] [nM] | IC50 [2] [nM] | SMILES |
| --- | --- | --- |
| 270 |  | CCOC(=O)C(C#N)=c1sc(=CNc2cccc(C(N)=O)c2)c(=O)n1CC [Example 48] |
| 270 |  | CCOC(=O)C(C#N)=c1sc(=CNc2ccc(NC(C)=O)cc2)c(=O)n1CC [Example 58] |
| 260 |  | CCOC(=O)C(C#N)=c1sc(=CNc2cccc(C(=O)NC)c2)c(=O)n1CC [Example 52] |
| 250 |  | CCOC(=O)C(C#N)=c1sc(=CNc2ccc(C(=O)O)cc2O)c(=O)n1CC [Example 30] |
| 240 |  | CCOC(=O)C(C#N)=c1sc(=CNc2ccc(S(N)(=O)=O)cc2)c(=O)n1CC [Example 50] |
| 230 |  | CCn1c(=CC#N)sc(=CNc2ccccc2)c1=O (mixture of isomers) [Example 21, (E or Z)-(3-Ethyl-4-oxo-5-(E/Z)-phenylaminomethylene-thiazolidin-2-ylidene)-acetonitrile] |
| 230 |  | CCOC(=O)C(C#N)=c1sc(=CNc2cccc(C(=O)O)c2)c(=O)n1CC [Example 24] |
| 200 | 4000 | CCOC(=O)C(C#N)=c1sc(=CNc2ccc(C(N)=O)cc2)c(=O)n1CC (mixture of isomers) [Example 10, (E or Z)-{5-(E/Z)-[(4-Carbamoyl-phenylamino)-methylene]-3-ethyl-4-oxo-thiazolidin-2-ylidene}-cyanoacetic acid ethyl ester] |
| 180 |  | CCOC(=O)C(C#N)=c1sc(=CNc2cccc(NC(C)=O)c2)c(=O)n1CC [Example 59] |
| 100 | 2000 | CCn1c(=C(C#N)C(=O)O)sc(=CNc2ccccc2)c1=O (mixture of isomers) [Example 12, (E or Z)-Cyano-(3-ethyl-4-oxo-5-(E/Z)-phenylaminomethylene-thiazolidin-2-ylidene)-acetic acid] |
